# Test results as given in PubChem BioAssay AID1745844 (Carcinogenic Potency Database (CPDB), 2022).
# The source made the active and inactive calls. No rule for the calls is given here.
# System: rodent lifetime carcinogenesis bioassay, tumor incidence TD50
# Test: chronic cancer bioassays in animals – CPDB, compiled studies (AID 1745844)
structure (smiles),measurement,setting,value
COc1cc(CNC(=O)CCCC/C=C/C(C)C)ccc1O,carcinogen call,"mouse, strain B6C3F1, females, in feed, site: any site (literature study), lesion: several types, types named in the paper, dosed 79 weeks, study length 83 weeks",negative (inactive)
same,carcinogen call,"mouse, strain B6C3F1, females, in feed, site: liver, lesion: several types, types named in the paper, dosed 79 weeks, study length 83 weeks",negative (inactive)
same,carcinogen call,"mouse, strain B6C3F1, females, in feed, site: lung, lesion: adenoma, dosed 79 weeks, study length 83 weeks",negative (inactive)
same,TD50,"mouse, strain B6C3F1, males, in feed, site: any site (literature study), lesion: several types, types named in the paper, dosed 79 weeks, study length 83 weeks",2040 mg/kg/day (inactive)
same,carcinogen call,"mouse, strain B6C3F1, males, in feed, site: liver, lesion: several types, types named in the paper, dosed 79 weeks, study length 83 weeks",negative (inactive)
same,TD50,"mouse, strain B6C3F1, males, in feed, site: lung, lesion: adenoma, dosed 79 weeks, study length 83 weeks",16100 mg/kg/day (inactive)
same,TD50,"mouse, strain Swiss albino, females, in feed, site: cecum, lesion: polypoid adenoma, dosed 152 weeks, study length 152 weeks",167 mg/kg/day
same,TD50,"mouse, strain Swiss albino, females, in feed, site: duodenum, lesion: adenocarcinoma, dosed 152 weeks, study length 152 weeks",2310 mg/kg/day
same,TD50,"mouse, strain Swiss albino, females, in feed, site: lung, lesion: adenoma, dosed 152 weeks, study length 152 weeks",225 mg/kg/day
same,TD50,"mouse, strain Swiss albino, females, in feed, site: lung, lesion: several types, types named in the paper, dosed 152 weeks, study length 152 weeks",1080 mg/kg/day
same,carcinogen call,"mouse, strain Swiss albino, males, in feed, site: cecum, lesion: polypoid adenoma, dosed 124 weeks, study length 124 weeks",positive
same,TD50,"mouse, strain Swiss albino, males, in feed, site: duodenum, lesion: several types, types named in the paper, dosed 124 weeks, study length 124 weeks",404 mg/kg/day
O=[N+]([O-])c1ccc(Nc2ccc(Nc3ccccc3)c(S(=O)(=O)O)c2)c([N+](=O)[O-])c1,TD50,"mouse, strain B6C3F1, females, by gavage, site: liver, lesion: hepatocellular adenoma + hepatocellular carcinoma + neoplastic nodule, dosed 103 weeks, study length 104 weeks",7550 mg/kg/day
same,TD50,"mouse, strain B6C3F1, females, by gavage, site: lung, lesion: alveolar/bronchiolar adenoma + alveolar/bronchiolar carcinoma, dosed 103 weeks, study length 104 weeks",11600 mg/kg/day
same,TD50,"mouse, strain B6C3F1, females, by gavage, site: lung, lesion: alveolar/bronchiolar adenoma, dosed 103 weeks, study length 104 weeks",2590 mg/kg/day (inactive)
same,TD50,"mouse, strain B6C3F1, males, by gavage, site: any site (literature study), lesion: several types, types named in the paper, dosed 103 weeks, study length 104 weeks",372 mg/kg/day
same,TD50,"mouse, strain B6C3F1, males, by gavage, site: liver, lesion: hepatocellular carcinoma, dosed 103 weeks, study length 104 weeks",184 mg/kg/day (inactive)
same,TD50,"mouse, strain B6C3F1, males, by gavage, site: lung, lesion: alveolar/bronchiolar adenoma + alveolar/bronchiolar carcinoma, dosed 103 weeks, study length 104 weeks",5860 mg/kg/day
same,TD50,"rat, strain Fischer 344, females, by gavage, site: any site (literature study), lesion: several types, types named in the paper, dosed 103 weeks, study length 104 weeks",361 mg/kg/day
same,TD50,"rat, strain Fischer 344, females, by gavage, site: kidney, lesion: transitional-cell carcinoma, dosed 103 weeks, study length 104 weeks",1710 mg/kg/day
same,TD50,"rat, strain Fischer 344, females, by gavage, site: liver, lesion: hepatocellular adenoma + hepatocellular carcinoma + neoplastic nodule, dosed 103 weeks, study length 104 weeks",5090 mg/kg/day
same,TD50,"rat, strain Fischer 344, males, by gavage, site: any site (literature study), lesion: several types, types named in the paper, dosed 100 weeks, study length 104 weeks",270 mg/kg/day (inactive)
CCCCCCCCS(=O)C(C)Cc1ccc2c(c1)OCO2 (stereo not given),TD50,"mouse, strain B6AKF1, males, oral dosing, site: liver, lesion: hepatoma, dosed 76 weeks, study length 76 weeks",88.2 mg/kg/day
same,carcinogen call,"mouse, strain B6C3F1, females, in feed, site: any site (literature study), lesion: several types, types named in the paper, dosed 104 weeks, study length 104 weeks",negative (inactive)
same,TD50,"mouse, strain B6C3F1, females, in feed, site: liver, lesion: hepatocellular adenoma + hepatocellular carcinoma + neoplastic nodule, dosed 104 weeks, study length 104 weeks",725 mg/kg/day
same,TD50,"mouse, strain B6C3F1, females, oral dosing, site: any site (literature study), lesion: several types, types named in the paper, dosed 76 weeks, study length 76 weeks",100 mg/kg/day
same,TD50,"mouse, strain B6C3F1, males, in feed, site: any site (literature study), lesion: several types, types named in the paper, dosed 104 weeks, study length 104 weeks",423 mg/kg/day
same,TD50,"mouse, strain B6C3F1, males, in feed, site: liver, lesion: hepatocellular adenoma + hepatocellular carcinoma + neoplastic nodule, dosed 104 weeks, study length 104 weeks",62.2 mg/kg/day
same,TD50,"mouse, strain B6C3F1, males, in feed, site: liver, lesion: hepatocellular carcinoma, dosed 104 weeks, study length 104 weeks",62.2 mg/kg/day
same,TD50,"mouse, strain B6C3F1, males, oral dosing, site: all sites, lesion: reticulum-cell sarcoma, dosed 76 weeks, study length 76 weeks",9.1 mg/kg/day
same,TD50,"mouse, strain B6C3F1, males, oral dosing, site: any site (literature study), lesion: several types, types named in the paper, dosed 76 weeks, study length 76 weeks",7.72 mg/kg/day
same,TD50,"mouse, strain B6C3F1, males, oral dosing, site: liver, lesion: hepatoma, dosed 76 weeks, study length 76 weeks",45.4 mg/kg/day
same,TD50,"rat, strain Fischer 344, females, in feed, site: any site (literature study), lesion: several types, types named in the paper, dosed 105 weeks, study length 105 weeks",2300 mg/kg/day (inactive)
same,carcinogen call,"rat, strain Fischer 344, males, in feed, site: any site (literature study), lesion: several types, types named in the paper, dosed 105 weeks, study length 105 weeks",negative (inactive)
same,TD50,"rat, strain Fischer 344, males, in feed, site: liver, lesion: hepatocellular adenoma + hepatocellular carcinoma + neoplastic nodule, dosed 105 weeks, study length 105 weeks",2650 mg/kg/day
